Test results published in patent US20250081967A1, “PESTICIDALLY ACTIVE HETEROCYCLIC DERIVATIVES WITH SULFOXIMINE CONTAINING SUBSTITUENTS” (SYNGENTA CROP PROTECTION AG, priority 2021, published 2025).

Key:
Type in all cases: in vivo
Bemisia tabaci = experiment: Activity against Bemisia tabaci (cotton white fly), cotton leaf discs; settings: foliar; for mortality at 12.5 ppm: concentration 12.5 ppm; for mortality at 200 ppm: 144 h, application rate 200 ppm, adult white flies, 6 days after incubation
Protocol: Example B6: Activity Against Bemisia tabaci (Cotton White Fly)
Cotton leaf discs were placed on agar in 24-well microtiter plates and sprayed with aqueous test solutions prepared from 10′000 ppm DMSO stock solutions. After drying the leaf discs were infested with adult white flies. The samples were checked for mortality 6 days after incubation.

Myzus persicae [1] = experiment: Activity against Myzus persicae (green peach aphid), feeding/contact activity, sunflower leaf discs; settings: for mortality at 200 ppm: 144 h, application rate 200 ppm, feeding/contact, 6 days after infestation
Protocol: Example B4: Activity Against Myzus persicae (Green Peach Aphid) Feeding/Contact Activity
Sunflower leaf discs were placed on agar in a 24-well microtiter plate and sprayed with aqueous test solutions prepared from 10′000 ppm DMSO stock solutions. After drying, the leaf discs were infested with an aphid population of mixed ages. The samples were assessed for mortality 6 days after infestation.

Myzus persicae [2] = experiment: Activity against Myzus persicae (green peach aphid), systemic activity, pea seedlings; settings: Myzus persicae
Protocol: Example B5: Activity Against Myzus persicae (Green Peach Aphid) Systemic Activity
Roots of pea seedlings infested with an aphid population of mixed ages were placed directly in the aqueous test solutions prepared from 10′000 DMSO stock solutions. The samples were assessed for mortality 6 days after placing seedlings in test solutions.

Spodoptera littoralis = experiment: Activity against Spodoptera littoralis (Egyptian cotton leaf worm), cotton leaf discs; settings: foliar, 72 h, application rate 200 ppm, L1 larvae, 3 days after infestation, read-out: control (mortality, anti-feeding effect or growth inhibition)
Protocol: Example B1: Activity Against Spodoptera littoralis (Egyptian Cotton Leaf Worm)
Cotton leaf discs were placed onto agar in 24-well microtiter plates and sprayed with aqueous test solutions prepared from 10′000 ppm DMSO stock solutions. After drying the leaf discs were infested with five L1 larvae. The samples were assessed for mortality, anti-feeding effect, and growth inhibition in comparison to untreated samples 3 days after infestation. Control of Spodoptera littoralis by a test sample is given when at least one of the categories mortality, anti-feedant effect, and growth inhibition is higher than the untreated sample.

Diabrotica balteata = experiment: Activity against Diabrotica balteata (corn root worm), maize sprouts; settings: for percent effect (mortality or growth inhibition) at 200 ppm: 96 h, application rate 200 ppm, L2 larvae, 4 days after infestation, read-out: effect in at least one of the two categories (mortality or growth inhibition); for mortality at 3.125 ppm: concentration 3.125 ppm; for mortality at 50 ppm: concentration 50 ppm
Protocol: Example B3: Activity Against Diabrotica Balteata (Corn Root Worm)
Maize sprouts placed onto an agar layer in 24-well microtiter plates were treated with aqueous test solutions prepared from 10′000 ppm DMSO stock solutions by spraying. After drying, the plates were infested with L2 larvae (6 to 10 per well). The samples were assessed for mortality and growth inhibition in comparison to untreated samples 4 days after infestation.

Plutella xylostella = experiment: Activity against Plutella xylostella (diamond back moth), artificial diet, eggs; settings: 192 h, application rate 200 ppm, 8 days after infestation, read-out: effect in at least one of the two categories (mortality or growth inhibition)
Protocol: Example B9: Activity Against Plutella xylostella (Diamond Back Moth)
24-well microtiter plates with artificial diet were treated with aqueous test solutions prepared from 10′000 ppm DMSO stock solutions by pipetting. After drying, Plutella eggs were pipetted through a plastic stencil onto a gel blotting paper and the plate was closed with it. The samples were assessed for mortality and growth inhibition in comparison to untreated samples 8 days after infestation.

[3] = Myzus persicae, foliar, Myzus persicae (feeding/contact), concentration 3.125 ppm
[4] = Myzus persicae (systemic), concentration 24 ppm
[5] = 144 h, test rate 24 ppm, systemic, 6 days after placing seedlings in test solutions

CCS(=N)(=O)c1cc(C2(C#N)CC2)cnc1-c1nc2cc(C(F)(F)F)ncc2n1C (racemic) [reference compound]
mortality at 12.5 ppm (Bemisia tabaci): 50%

CCS(=O)(=O)c1cc(C2(C#N)CC2)cnc1-c1nc2cc(C(F)(F)F)cnc2n1C [reference compound]
mortality at 3.125 ppm (Myzus persicae [1]; [3]): 80%

CCS(=O)(=O)c1cc(C2(C#N)CC2)cnc1-c1nc2cc(C(F)(F)F)ncc2n1C [reference compound]
mortality at 0.781 ppm (Myzus persicae [1]; Myzus persicae, foliar, Myzus persicae (feeding/contact), concentration 0.781 ppm): 0%

CCS(=O)(=O)c1cc(OC(C)(C)C#N)c(C)nc1-c1nc2cc(C(F)(F)F)cnc2n1C [Described in WO21/219810 as compound P4, reference compound]
mortality at 24 ppm (Myzus persicae [2]; [4]): 0%

CCS(=N)(=O)c1cc(OC(C)(C)C#N)cnc1-c1cn2ccc(C(F)(F)F)cc2n1 (single isomer, unassigned) [Compound P3-A, 2-[[5-(ethylsulfonimidoyl)-6-[7-(trifluoromethyl)imidazo[1,2-a]pyridin-2-yl]-3-pyridyl]oxy]-2-methyl-propanenitrile]
percent control (mortality, anti-feedant effect or growth inhibition) at 200 ppm (Spodoptera littoralis): ≥ 80%
mortality at 200 ppm (Myzus persicae [1]; Myzus persicae, foliar): ≥ 80%
percent effect (mortality or growth inhibition) at 200 ppm (Diabrotica balteata): ≥ 80%

CCS(=O)(=O)c1cc(OC(C)(C)C#N)c(C)nc1-c1nc2cc(C(F)(F)F)cnc2n1C (racemic) [Described in WO20/084075 as compound P4, reference compound]
mortality at 3.125 ppm (Diabrotica balteata): 0%

CCS(=N)(=O)c1cc(OC(C)(C)C#N)cnc1-c1nc2cc(C(F)(F)F)ncc2n1C (racemic) [Described in WO20/084075 as compound P1, reference compound]
mortality at 50 ppm (Diabrotica balteata): 0%

CCS(=N)(=O)c1cc(OC(C)(C)C#N)cnc1-c1cn2ccc(C(F)(F)F)cc2n1 (single isomer, unassigned) [Compound P3-B, 2-[[5-(ethylsulfonimidoyl)-6-[7-(trifluoromethyl)imidazo[1,2-a]pyridin-2-yl]-3-pyridyl]oxy]-2-methyl-propanenitrile]
mortality at 24 ppm (Myzus persicae [2]; [5]): ≥ 80%
percent effect (mortality or growth inhibition) at 200 ppm (Plutella xylostella): ≥ 80%

CCS(=N)(=O)c1cc(OC(C)(C)C#N)cnc1-c1nc2cc(C(F)(F)F)cnc2n1C (racemic) [Described in WO20/084075 as compound P3, reference compound]
mortality at 50 ppm (Diabrotica balteata): 80%

CCS(=O)(=O)c1cc(C2(C#N)CC2)ccc1-c1nc2cc(C(F)(F)F)cnc2n1C [reference compound]
mortality at 6 ppm (Myzus persicae [2]; Myzus persicae (systemic), concentration 6 ppm): 0%

CCS(=N)(=O)c1cc(C(C)(C)C#N)cnc1-c1nc2cc(C(F)(F)F)ncc2n1C (racemic) [Compound P4, 2-[5-(ethylsulfonimidoyl)-6-[3-methyl-6-(trifluoromethyl)imidazo[4,5-c]pyridin-2-yl]-3-pyridyl]-2-methyl-propanenitrile]
mortality at 200 ppm (Myzus persicae [1]; Myzus persicae, foliar): ≥ 80%
mortality at 24 ppm (Myzus persicae [2]; [5]): ≥ 80%
mortality at 200 ppm (Bemisia tabaci): ≥ 80%

CCS(=N)(=O)c1cc(C2(C#N)CC2)ccc1-c1nc2cc(C(F)(F)F)ncc2n1C (racemic) [Described in WO19/234158 as compound P13, reference compound]
mortality at 50 ppm (Diabrotica balteata): 0%
mortality at 12.5 ppm (Bemisia tabaci): 0%

CCS(=N)(=O)c1cc(OC(C)(C)C#N)cnc1-c1nc2cc(C(F)(F)F)nnc2n1C (single isomer, unassigned) [Compound P15-B, 2-[[5-(ethylsulfonimidoyl)-6-[7-methyl-3-(trifluoromethyl)imidazo[4,5-c]pyridazin-6-yl]-3-pyridyl]oxy]-2-methyl-propanenitrile]
Mortality (%) (Diabrotica balteata; concentration 12.5 ppm): 100%

CCS(=N)(=O)c1cc(OC(C)(C)C#N)c(C)nc1-c1nc2cc(C(F)(F)F)cnc2n1C (single isomer, unassigned) [Compound P5-A, 2-[[5-(ethylsulfonimidoyl)-2-methyl-6-[3-methyl-6-(trifluoromethyl)imidazo[4,5-b]pyridin-2-yl]-3-pyridyl]oxy]-2-methyl-propanenitrile]
percent control (mortality, anti-feedant effect or growth inhibition) at 200 ppm (Spodoptera littoralis): ≥ 80%
mortality at 200 ppm (Myzus persicae [1]; Myzus persicae, foliar): ≥ 80%
percent effect (mortality or growth inhibition) at 200 ppm (Diabrotica balteata): ≥ 80%
mortality at 3.125 ppm (Diabrotica balteata): 80%
mortality at 24 ppm (Myzus persicae [2]; [5]): ≥ 80%
mortality at 24 ppm (Myzus persicae [2]; [4]): 100%
mortality at 200 ppm (Bemisia tabaci): ≥ 80%

CCS(=N)(=O)c1cc(C(C)(C)C#N)cnc1-c1nc2cc(C(F)(F)F)ncc2n1C (single isomer, unassigned) [Compound P4-B, 2-[5-(ethylsulfonimidoyl)-6-[3-methyl-6-(trifluoromethyl)imidazo[4,5-c]pyridin-2-yl]-3-pyridyl]-2-methyl-propanenitrile]
percent effect (mortality or growth inhibition) at 200 ppm (Diabrotica balteata): ≥ 80%
percent effect (mortality or growth inhibition) at 200 ppm (Plutella xylostella): ≥ 80%

CCS(=N)(=O)c1cc(C2(C#N)CC2)ccc1-c1nc2cc(C(F)(F)F)cnc2n1C (racemic) [Described in WO19/234158 as compound P15, reference compound]
mortality at 50 ppm (Diabrotica balteata): 0%

CCS(=N)(=O)c1cc(C2(C#N)CC2)cnc1-c1nc2cc(C(F)(F)F)cnc2n1C (racemic) [Described in WO19/234158 as compound P6, reference compound]
mortality at 12.5 ppm (Bemisia tabaci): 50%

CCS(=N)(=O)c1cc(OC(C)(C)C#N)cnc1-c1cn2cnc(C(F)(F)F)cc2n1 (single isomer, unassigned) [Compound P11-B, 2-[[5-(ethylsulfonimidoyl)-6-[7-(trifluoromethyl)imidazo[1,2-c]pyrimidin-2-yl]-3-pyridyl]oxy]-2-methyl-propanenitrile]
mortality at 200 ppm (Bemisia tabaci): ≥ 80%

CCS(=N)(=O)c1cc(OC(C)(C)C#N)cnc1-c1cn2cnc(SC(F)(F)F)cc2n1 (racemic) [Described in WO20/084075 as compound P11, reference compound]
mortality at 50 ppm (Bemisia tabaci; concentration 50 ppm): 50%

CCS(=N)(=O)c1cc(C(C)(C)C#N)cnc1-c1nc2cc(C(F)(F)F)ncc2n1C (single isomer, unassigned) [Compound P4-A, 2-[5-(ethylsulfonimidoyl)-6-[3-methyl-6-(trifluoromethyl)imidazo[4,5-c]pyridin-2-yl]-3-pyridyl]-2-methyl-propanenitrile]
mortality at 200 ppm (Myzus persicae [1]; Myzus persicae, foliar): ≥ 80%
mortality at 24 ppm (Myzus persicae [2]; [5]): ≥ 80%
mortality at 200 ppm (Bemisia tabaci): ≥ 80%

CCn1c(C(F)(F)F)cc2nc(-c3ncc(C4(C#N)CC4)cc3S(=N)(=O)CC)n(C)c2c1=O (racemic) [Described in WO19/234158 as compound P14, reference compound]
mortality at 50 ppm (Diabrotica balteata): 0%

CCS(=N)(=O)c1cc(C2(C#N)CC2)cnc1-c1nc2cc(C(F)(F)F)nnc2n1C (single isomer, unassigned) [Compound P2-B, 1-[5-(ethylsulfonimidoyl)-6-[7-methyl-3-(trifluoromethyl)imidazo[4,5-c]pyridazin-6-yl]-3-pyridyl]cyclopropanecarbonitrile]
Mortality (%) (Myzus persicae [1]; Myzus persicae (feeding/contact), concentration 3.125 ppm): 50%

CCS(=O)(=O)c1cc(OC(C)(C)C#N)cnc1-c1nc2cc(C(F)(F)F)n(C3CC3)c(=O)c2n1C [Described in WO21/219810 as compound P7, reference compound]
mortality at 50 ppm (Myzus persicae [1]; Myzus persicae, foliar, Myzus persicae (contact), concentration 50 ppm): 0%

CCS(=O)(=O)c1cc(OC(C)(C)C#N)cnc1-c1nc2cc(C(F)(F)F)cnc2n1C [Described in WO21/219810 as compound P3, reference compound]
mortality at 24 ppm (Myzus persicae [2]; [4]): 50%

CCS(=O)(=O)c1cc(OC(C)(C)C#N)cnc1-c1nc2cc(C(F)(F)F)ncc2n1C [Described in WO18/197315 as compound P18, reference compound]
mortality at 12.5 ppm (Myzus persicae [1]; Myzus persicae, foliar, Myzus persicae (feeding/contact), concentration 12.5 ppm): 65%

CCS(=O)(=O)c1cc(OC(C)(C)C#N)cnc1-c1cn2cnc(C(F)(F)F)cc2n1 [Described in WO18/206348 as compound P13, reference compound]
mortality at 24 ppm (Myzus persicae [2]; [4]): 0%

CCS(=O)(=O)c1cc(C2(C#N)CC2)cnc1-c1nc2cc(C(F)(F)F)nnc2n1C [Described in WO18/108726 as compound H-1, reference compound]
mortality at 3.125 ppm (Myzus persicae [1]; [3]): 80%

CCS(=N)(=O)c1cc(OC(C)(C)C#N)cnc1-c1nc2cc(C(F)(F)F)nnc2n1C (racemic) [Described in WO20/084075 as compound P2, reference compound]
mortality at 12.5 ppm (Diabrotica balteata; concentration 12.5 ppm): 0%
